# Results from patent US4101669A (priority 1977, dated 1978).
# Columns and labels:
# [1] = Example 1: stability of active ingredient at 300 ppm in severe test waters, assay after 4 hours at room temperature; type: physicochemical; conditions: for pH: after 4 hours at room temperature; for assay (as percent of original): 4 hours, room temperature
# Protocol: The stability of the active ingredient formulated as above is compared with that of the pure technical material at 300 ppm in:
# (a) a basic, soda-ash softened water of initial pH 10.2 with 0.66 × 10^-3 N basicity, primarily as carbonate, and
# (b) a strong "sodium bicarbonate" water (prepared to match a Montana well water) with pH 8.8 and 13 × 10^-3 N basicity.
# After 4 hours at room temperature in these severe test waters, the following pH readings and assays (as percent of original) were obtained.
# [2] = Example 2: stability of substituted acetamide in mixtures with commercial fungicides, 4 hour assay and 1-4 hour pH range; type: physicochemical; conditions: particularly in basic water
# Protocol: is prepared by blending and hammer milling.
# (b) 2-cyano-N-ethylcarbamoyl-2-methoxyiminoacetamide is finely ground.
# The materials above are mixed with the following commercial fungicides in a ratio to provide 1 part of active compound of (a) or (b) with the indicated parts of commodity listed:
# The mixtures are then added to distilled water in one case and 4.7 × 10^-3 N sodium bicarbonate (chosen to represent rather alkaline water) in the other case, at a rate to provide about 150 ppm of substituted acetamide. After 4 hours, the suspensions are assayed to determine the present substituted acetamide remaining. The pH during the 1-4 hour period is also recorded.
compound,measurement,setting,value
"CCNC(=O)NC(=O)C(C#N)=NOC [pure compound, 2-cyano-N-ethylcarbamoyl-2-methoxyiminoacetamide]",pH,[1]; water a),7.7
same,assay (as percent of original),"[1]; water a): soda-ash softened, initial pH 10.2, 0.66 × 10^-3 N basicity",43% of original
same,pH,[1]; water b),8.2
same,assay (as percent of original),"[1]; water b): strong sodium bicarbonate water, pH 8.8, 13 × 10^-3 N basicity",16% of original
same,effect of acidulant on stability in mixtures with commercial fungicides,[2],the acidulant improves stability
